Measurements reported in patent publication US20140255432A1, “SILVESTROL, SILVESTROL ANALOGS AND USES THEREOF” (priority 2011, published 2014).

Legend:
Assay type in all cases: cell-based, human
[1] = test system: CD3-/CD19+ LCL and immune effector subsets; assay: Non-irradiated LCL / autologous PBMC co-cultures, flow cytometry
Procedure: Lymphoblastoid cell lines (LCL) were derived in vivo by engrafting severe combined immune-deficient (SCID) mice (Taconic, Hudson N.Y.) with human peripheral blood mononuclear cells (PBMC) from a healthy EBV-positive donor as described (Rowe 1991; Baiocchi 1994). Co-cultures (Cocx) were created by mixing 5×10^4 LCL (either non-irradiated or irradiated with 14000 rad) per well with equal numbers of autologous PBMC in 96-well plates. Cultures were grown in the presence of 10 U/mL IL-2 and were given a single dose of silvestrol and cultured for 10-14 days.
Cells from irradiated or non-irradiated co-cultures were co-stained with LIVE/DEAD cell stain (Invitrogen, Grand Island, N.Y.) and hu-CD3-APC and either hu-CD4-PE, hu-CD-8-PE, hu-CD19-PE (BD Biosciences, San Diego, Calif.), or hu-CD56-PE (Beckman Coulter, Brea, Calif.). Live events were gathered by gating on cells negative for the LIVE/DEAD stain on an FC500 cytometer (Beckman Coulter). Cell viability was also measured by flow cytometry at 24, 72, and 120 hr using annexin-V-FITC and propidium iodide (PI) according to the manufacturer's instructions (BD Biosciences).
It was next examined how viable, non-irradiated LCL interacted with immune effectors in the presence of silvestrol, a situation closer to conditions that occur in vivo. CoCx were incubated in the presence of 10 U/mL IL-2. Specifically, LCL from three separate donors were incubated at a ratio of 1:1 with their respective autologous PBMCs for 10 days after adding a single dose of 0, 2, 5, or 10 nM silvestrol. On day 10, flow cytometric analysis was conducted. Live events were gathered by gating on cells negative for the LIVE/DEAD stain. Data are expressed as percentage of total viable population for (A) CD3^−/CD19^+ LCLs; (B) CD3^+/C4^+ helper T cells; (C) CD3^+/CD8^+ CTLs; or (D) CD3^−/CD56^+ NK cells. Left untreated, the transformed LCL (CD3^−/CD19^+) cells proliferated and matched the expansion of effectors lymphocyte subsets, approximately maintaining the 1:1 ratio (FIGS. 34A and 34E). […] Similarly, CD4^+ T cell percentages were reduced with increasing silvestrol concentrations (FIG. 34B). In contrast, CD8+ T cells and CD56^+ NK cell populations expanded in the presence of silvestrol, both as percent of population and absolute numbers (FIGS. 34C-34D).

autologous LCL targets = assay: Flow cytometry-based cytotoxicity assay (CFSE/7-AAD), effectors against autologous LCL
Procedure: (§1) Non-radioactive flow cytometry-based cytotoxicity assays have been described previously (Godoy-Ramirez 2005; Helguera 2011). Co-cultures of PBMC and irradiated LCL were grown in the presence or absence of silvestrol for 14 d and collected. Fresh autologous LCL cells were stained with 200 nM carboxyfluorescein diacetate succinimidyl ester (CFSE) (CellTrace™, Invitrogen) for 15 min at 25° C. prior to being mixed with effectors from the irradiated co-cultures at an effector:target (E:T) ratio of 20:1 for 4 hr at 37° C. After the incubation, cells were stained with 7-aminoactinomycin D (7AAD) (BD Biosciences, San Diego, Calif.) and washed. Cytotoxicity was measured by gating on the CFSE-positive events and measuring the 7AAD-positive cells. (See FIGS. 31 and 32). For antibody-dependent cell-mediated cytotoxicity (ADCC) assays the same technique was used; however, the co-cultured effectors were natural killer (NK) cell-enriched and were incubated in the presence or absence of 5 μg/mL rituximab or herceptin (negative control) (Genentech, Inc., South San Francisco, Calif.) for 4 hr at 37° C.
Immune cell function was then analyzed as part of the indirect anti-tumor activity of silvestrol. Cytotoxicity assays were performed. To investigate the effect of silvestrol on adaptive immunity, LCL cells were stained with the cell-tracking dye CFSE, then incubated at an effector to target ratio of 20:1 with autologous PBMC that had been cultured in the presence of irradiated LCL, with or without silvestrol, for 14 days. After a 4 hr incubation, cells were stained with the viability dye 7-AAD and washed. Cytotoxic activity against LCL targets was measured by gating on the CFSE positive events and measuring the 7-AAD positive cells (FIGS. 31-32). […] Data are shown relative to the vehicle-only control and are the averages of three independent experiments. Bars show −/+ standard deviation.
Given that LCL cells were depleted and effector cell cytotoxicity was maintained in non-irradiated co-cultures, whether silvestrol lowers the apoptotic threshold of the LCL tumor target was examined. PBMC were co-cultured with irradiated LCL in the absence of silvestrol for 14 days. These expanded effectors and fresh LCL each were separately incubated with silvestrol or vehicle control for 18 hr and washed. Cells were then combined, and after 4 hr incubation, cytotoxicity assays were performed as above. […] Data are shown relative to the vehicle-only control and are the averages of three independent experiments. Bars show −/+ standard deviation.

NK cells against LCL = assay: Antibody-dependent cell-mediated cytotoxicity (ADCC) assay of NK cells with rituximab
Procedure: as §1
Next, antibody-dependent cell-mediated cytotoxicity (ADCC) assays were utilized to measure the innate immune response of NK cells to LCL in the presence of silvestrol. […] Fresh CFSE-labeled LCL targets and autologous NK cells were incubated with the monoclonal antibodies rituximab (anti-CD20, expressed on LCL) or herceptin (anti-HER2, not expressed on immune cells). After 4 hr, ADCC was evaluated using CFSE and 7-AAD staining as described above. Specifically, cytotoxicity was measured by CFSE^+/7AAD^+ events. Data are shown relative to the positive control (effectors+targets+ritux) and are the averages of three individual experiments. Bars show −/+ standard deviation.
To determine the acute effect of silvestrol on ADCC, fresh (non-autologous) NK cells were obtained from enriched leukocyte products, incubated 18 hr with or without 10 nM silvestrol, then washed and mixed with CFSE-stained LCL. […]

[2] = single dose 2, 5, 10 nM, day 10, non-irradiated LCL

COC(=O)[C@H]1[C@@H](O)[C@@]2(O)c3c(OC)cc(O[C@@H]4O[C@@H]([C@H](O)CO)CO[C@H]4OC)cc3O[C@@]2(c2ccc(OC)cc2)[C@@H]1c1ccccc1 [silvestrol]
CD19+ B cells in non-irradiated co-cultures ([1]; 2, 5, 10 nM, 14 days of culture (FIG. 16)): dose dependent loss
CD4+ T cell percentages [1, 2]: reduced
CD8+ T cell population (percent and absolute numbers) [1, 2]: expanded
CD56+ NK cell population (percent and absolute numbers) [1, 2]: expanded
viable EBV-LCL (CD3-/CD19+) [1, 2]: dose-dependent ablation
direct killing of autologous EBV+ LCLs by EBV-specific CTLs (autologous LCL targets; 10 nM (FIG. 42)): not adversely affected
cytotoxic activity against autologous LCL maintained, compared to effectors expanded without silvestrol (autologous LCL targets; effectors expanded 14 days with 10 nM, E:T 20:1, 4 hr): over 70%
ability of silvestrol-treated effectors to kill targets vs. untreated effectors (autologous LCL targets; effectors incubated 18 hr with silvestrol, p=0.287): no decrease
cytotoxic activity of effector populations against autologous EBV+ tumor cells (autologous LCL targets; expanded 14 days in 2, 5, 10 nM, 3 donors (FIG. 17)): did not affect cytotoxic activity
killing of LCL target cells pretreated with silvestrol vs. untreated targets (autologous LCL targets; targets pretreated 18 hr, p<0.0001): more efficiently killed
ADCC activity of NK cells incubated in media vs. silvestrol (NK cells against LCL; 10 nM, 24 hr pretreatment, DC9 LCLs (FIG. 19)): equivalent ADCC activity
ADCC activity of freshly isolated (non-autologous) NK cells (NK cells against LCL; 18 hr pre-incubation with 10 nM, p=0.854): no observable effect
rituximab-dependent cytotoxic activity of NK cells, expanded with vs. without silvestrol (NK cells against LCL; autologous NK cells, 10 nM for 14 days, p=0.838): similar
